Assay results published in patent publication US20090270407A1, “FUNGICIDAL ISOXAZOLIDINES” (E. I. DU PONT DE NEMOURS AND COMPANY, priority 2008, published 2009).
Where two headings read alike, the source gives them in different places. Marks after values point to notes of the source that are not given here.

Key:
Details in all cases: 100 = 100 % disease control, 0 = no disease control relative to controls
Phytophthora infestans = assay type: in vivo
[1] = test system: Puccinia recondita f. sp. tritici; assay: Test B: wheat leaf rust, preventive spray on wheat seedlings, visual disease rating
Botrytis cinerea = assay: Test E: tomato Botrytis, preventive spray on tomato seedlings, visual disease rating
Excerpt: General protocol for preparing test suspensions for Tests A-I: The test compounds were first dissolved in acetone in an amount equal to 3% of the final volume and then suspended at the desired concentration (in ppm) in acetone and purified water (50/50 mix) containing 250 ppm of the surfactant Trem® 014 (polyhydric alcohol esters). The resulting test suspensions were then used in Tests A-I. Spraying a 200 ppm test suspension to the point of run-off on the test plants was the equivalent of a rate of 500 g/ha.
The test suspension was sprayed to the point of run-off on tomato seedlings. The following day the seedlings were inoculated with a spore suspension of Botrytis cinerea (the causal agent of tomato Botrytis) and incubated in saturated atmosphere at 20° C. for 48 h, and then moved to a growth chamber at 24° C. for 3 additional days, after which time visual disease ratings were made.
(§1) All results are for 200 ppm except where followed by “*” which indicates 40 ppm.

Septoria nodorum = assay: Test C: wheat glume blotch, preventive spray on wheat seedlings, visual disease rating
Description: (An asterisk “*” next to the rating value indicates a 40 ppm test suspension.)
The test suspension was sprayed to the point of run-off on wheat seedlings. The following day the seedlings were inoculated with a spore suspension of Septoria nodorum (the causal agent of wheat glume blotch) and incubated in a saturated atmosphere at 20° C. for 48 h, and then moved to a growth chamber at 20° C. for 7 days, after which time visual disease ratings were made.
(§2) A dash (−) indicates no test results. All results are for 200 ppm except where followed by “*” which indicates 40 ppm.

[2] = test system: Erysiphe graminis f. sp. tritici; assay: Test A: wheat powdery mildew, preventive spray on wheat seedlings, visual disease rating
Excerpt: (§3) General protocol for preparing test suspensions for Tests A-I: The test compounds were first dissolved in acetone in an amount equal to 3% of the final volume and then suspended at the desired concentration (in ppm) in acetone and purified water (50/50 mix) containing 250 ppm of the surfactant Trem® 014 (polyhydric alcohol esters). The resulting test suspensions were then used in Tests A-I. Spraying a 200 ppm test suspension to the point of run-off on the test plants was the equivalent of a rate of 500 g/ha. (An asterisk “*” next to the rating value indicates a 40 ppm test suspension.)
The test suspension was sprayed to the point of run-off on wheat seedlings. The following day the seedlings were inoculated with a spore dust of Erysiphe graminis f. sp. tritici (the causal agent of wheat powdery mildew) and incubated in a growth chamber at 20° C. for 8 days, after which time visual disease ratings were made.

Alternaria solani = assay: Test F: tomato early blight, preventive spray on tomato seedlings, visual disease rating
Excerpt: as §3
The test suspension was sprayed to the point of run-off on tomato seedlings. The following day the seedlings were inoculated with a spore suspension of Alternaria solani (the causal agent of tomato early blight) and incubated in a saturated atmosphere at 27° C. for 48 h, and then moved to a growth chamber at 20° C. for 5 days, after which time visual disease ratings were made.
as §2

Plasmopara viticola = assay: Test I: grape downy mildew, spray on grape seedlings after inoculation, visual disease rating
Excerpt: as §3
Grape seedlings were inoculated with a spore suspension of Plasmopara viticola (the causal agent of grape downy mildew) and incubated in a saturated atmosphere at 20° C. for 24 h. After a short drying period, the test suspension was sprayed to the point of run-off on the grape seedlings and then moved to a growth chamber at 20° C. for 6 days, after which time the test units were placed back into a saturated atmosphere at 20° C. for 24 h. Upon removal, visual disease ratings were made.
as §1

Rhizoctonia oryzae = assay: Test G: turf brown patch, preventive spray on creeping bent grass seedlings, visual disease rating
Description: The test suspension was sprayed to the point of run-off on creeping bent grass seedlings. The following day the seedlings were inoculated with a spore suspension of Rhizoctonia oryzae (the causal agent of turf brown patch) and incubated in a saturated atmosphere at 27° C. for 48 h, and then moved to a growth chamber at 27° C. for 3 days, after which time visual disease ratings were made.
as §2

Septoria tritici = assay: Test D: wheat leaf blotch, preventive spray on wheat seedlings, visual disease rating; assay type: in vivo
Excerpt: A dash (−) indicates no test results.

Compound	Test H disease control rating (Phytophthora infestans; 200 ppm) [%]	Test B disease control rating ([1]; 200 ppm) [%]	Test E disease control rating (Botrytis cinerea; 200 ppm) [%]	Test C disease control rating (Septoria nodorum; 200 ppm) [%]	Test A disease control rating ([2]; 200 ppm) [%]	Test F disease control rating (Alternaria solani; 200 ppm) [%]	Test I disease control rating (Plasmopara viticola; 200 ppm) [%]	Test G disease control rating (Rhizoctonia oryzae; 200 ppm) [%]	Test D disease control rating (Septoria tritici; 40 ppm (marked *))	Test H disease control rating (Phytophthora infestans; 40 ppm (marked *))	Test E disease control rating (Botrytis cinerea; 40 ppm (marked *))	Test C disease control rating (Septoria nodorum; 40 ppm (marked *))	Test A disease control rating ([2]; 40 ppm (marked *))	Test F disease control rating (Alternaria solani; 40 ppm (marked *))	Test G disease control rating (Rhizoctonia oryzae; 40 ppm (marked *))	Test B disease control rating ([1]; 40 ppm (marked *))	Test I disease control rating (Plasmopara viticola; 40 ppm (marked *))	Test D disease control rating (Septoria tritici; 200 ppm) [%]
CN1OC(C)(c2cccnc2)CC1c1ccc(Oc2ccccc2)cc1 (racemic) [Compound 9]	17	82	99	95	99	78	0	0	–	–	–	–	–	–	–	–	–	–
Cc1cccc(-c2ccc(C3CC(c4cccnc4)(C(F)(F)F)ON3C)cc2)c1C (racemic) [Compound 31]	–	0	–	–	–	–	0	–	50* %	0* %	0* %	0* %	98* %	0* %	0* %	–	–	–
CN1OC(C)(c2cccnc2)CC1c1ccc(Cl)c(Cl)c1 (centres unmarked) [Compound 5]	0	0	91	0	98	51	0	0	–	–	–	–	–	–	–	–	–	–
CN1O[C@](C)(c2cccnc2)C[C@@H]1c1ccc(-n2cc(Br)cn2)cc1 (relative stereo) [Compound 37, rel-3-[(3R,5S)-3-[4-(4-bromo-1H-pyrazol-1-yl)phenyl]-2,5-dimethyl-5-isoxazolidinyl]pyridine]	–	–	94	–	–	–	–	–	99* %	0* %	–	99* %	95* %	93* %	0* %	74* %	0* %	–
Cc1ccc(-c2ccc(C3CC(C)(c4cccnc4)ON3C)cc2)cc1 (racemic) [Compound 14]	–	–	–	–	–	–	–	–	0* %	0* %	0* %	0* %	91* %	0* %	–	0* %	0* %	–
CN1OC(C)(c2cccnc2)CC1c1ccc(I)cc1 (racemic) [Compound 15]	0	0	98	99	99	100	0	–	–	–	–	–	–	–	–	–	–	98
CN1OC(C)(c2cccnc2)CC1c1ccc(C(C)(C)C)cc1 (racemic) [Compound 7]	0	34	99	69	99	40	0	0	–	–	–	–	–	–	–	–	–	–
CN1OC(C)(c2cccnc2)CC1c1ccc(Br)cc1 (racemic) [Compound 4]	0	32	80	100	90	0	0	0	–	–	–	–	–	–	–	–	–	–
CN1OC(C)(c2cccnc2)CC1c1ccc(C(C)(C)C)cc1 (racemic) [Compound 8]	0	69	56	40	99	0	0	0	–	–	–	–	–	–	–	–	–	–
CN1OC(C)(c2cccnc2)CC1c1ccc(I)cc1 (racemic) [Compound 16]	0	0	56	95	99	0	0	–	–	–	–	–	–	–	–	–	–	96
CN1O[C@](C)(c2cccnc2)C[C@@H]1c1ccc(Cl)cc1 (relative stereo) [Compound 1, rel-3-[(3R,5S)-3-(4-chlorophenyl)-2,5-dimethyl-5-isoxazolidinyl]pyridine]	0	0	83	100	97	0	0	0	–	–	–	–	–	–	–	–	–	–
Cc1ccc(-c2ccc([C@H]3C[C@@](C)(c4cccnc4)ON3C)cc2)cc1 (relative stereo) [Compound 13, rel-3-[(3R,5S)-2,5-dimethyl-3-(4′-methyl[1,1′-biphenyl]-4-yl)-5-isoxazolidinyl]pyridine]	–	–	–	–	–	–	–	–	92* %	0* %	99* %	0* %	99* %	0* %	–	0* %	0* %	–
CN1OC(C)(c2cccnc2)CC1c1ccc(Oc2ccccc2)cc1 (racemic) [Compound 10]	0	82	98	98	93	0	0	0	–	–	–	–	–	–	–	–	–	–
CN1OC(C)(c2cccnc2)CC1c1ccc(-c2ccccc2)cc1 (racemic) [Compound 12]	0	74	29	82	99	0	0	0	–	–	–	–	–	–	–	–	–	–
CN1OC(C)(c2cccnc2)CC1c1ccc(-n2cccn2)cc1 (racemic) [Compound 33]	–	–	–	–	–	–	–	–	80* %	0* %	39* %	99* %	99* %	58* %	–	0* %	0* %	–
CN1OC(C)(c2cccnc2)CC1c1ccc(Cl)c(Cl)c1 (centres unmarked) [Compound 6]	0	0	0	0	99	0	17	0	–	–	–	–	–	–	–	–	–	–
CN1OC(C)(c2cccnc2)CC1c1ccc(-c2ccccc2)cc1 (racemic) [Compound 11]	0	91	99	97	99	26	0	0	–	–	–	–	–	–	–	–	–	–
CN1OC(C)(c2cccnc2)CC1c1ccc(-n2cccn2)cc1 (centres unmarked) [Compound 34]	–	–	–	–	–	–	–	–	88* %	0* %	56* %	99* %	98* %	6* %	–	0* %	0* %	–
CN1O[C@@](C)(c2cccnc2)C[C@@H]1c1ccc(Cl)cc1 (relative stereo) [Compound 2, rel-3-[(3R,5R)-3-(4-chlorophenyl)-2,5-dimethyl-5-isoxazolidinyl]pyridine]	0	0	0	99	72	0	17	0	–	–	–	–	–	–	–	–	–	–
CN1O[C@](C)(c2cccnc2)C[C@@H]1c1ccc(-n2ccc(C(F)(F)F)n2)cc1 (relative stereo) [Compound 35, rel-3-[(3R,5S)-2,5-dimethyl-3-[4-[3-(trifluoromethyl)-1H-pyrazol-1-yl]phenyl]-5-isoxazolidinyl]pyridine]	–	–	–	–	–	–	–	–	99* %	0* %	99* %	100* %	100* %	98* %	–	100* %	0* %	–
CN1OC(C)(c2cccnc2)CC1c1ccc(-c2ccc(OC(F)(F)F)cc2)cc1 (racemic) [Compound 17]	–	–	–	–	–	–	–	–	30* %	0* %	94* %	0* %	100* %	15* %	–	0* %	0* %	–
